# Measured values published in the supplement of paper PMC10307832.
# How the values were obtained:
# Experiment in all cases: relative viability (nuclei count vs DMSO), 5 days (fraction); higher = more cells survive
# [1] = compound: Cn1cncc1[C@@](N)(c1ccc(Cl)cc1)c1ccc2c(c1)c(-c1cccc(Cl)c1)cc(=O)n2C [Tipifarnib]
# Procedure, shortened: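 Lung cancer cell lines were seeded into 1536-well plates, kept overnight at 37 °C and pinned with five library-drug doses (not always all listed) spaced by √10. After 5 days, nuclei were Hoechst-stained, imaged at 4× and counted with MetaXpress. Viability is treated-well nuclei over vehicle-well nuclei, taken as a median across plates. Plates needed control CV below 25% and at least one doubling.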
# [2] = compound: Cn1cncc1[C@@](N)(c1ccc(Cl)cc1)c1ccc2c(c1)c(-c1cccc(Cl)c1)cc(=O)n2C [Tipifarnib] + CC(C)C[C@H](NC(=O)[C@H](Cc1ccccc1)NC(=O)c1cnccn1)B(O)O [Bortezomib] (partner 0.002 µM)
# Procedure, shortened: (§1)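 Values are medians from duplicate plates. Each reflects relative viability, defined as the nuclei count of treated wells over that of vehicle wells. Lung cancer cell lines in 1536-well plates were pin-tool dosed one day after seeding with one drug alone or with a fixed anchor-drug dose plus five library-drug doses (not always all listed) in √10 steps, then fixed, stained and imaged at 4× after 5 days.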
# [3] = compound: Cn1cncc1[C@@](N)(c1ccc(Cl)cc1)c1ccc2c(c1)c(-c1cccc(Cl)c1)cc(=O)n2C [Tipifarnib] + CC1(C)CCC(c2ccc(Cl)cc2)=C(CN2CCN(c3ccc(C(=O)NS(=O)(=O)c4ccc(N[C@H](CCN5CCOCC5)CSc5ccccc5)c(S(=O)(=O)C(F)(F)F)c4)cc3)CC2)C1 [Navitoclax] (partner 0.5 µM)
# Procedure, shortened: as §1
# [4] = compound: Cn1cncc1[C@@](N)(c1ccc(Cl)cc1)c1ccc2c(c1)c(-c1cccc(Cl)c1)cc(=O)n2C [Tipifarnib] + COc1cc2c(Oc3ccc(NC(=O)C4(C(=O)Nc5ccc(F)cc5)CC4)cc3F)ccnc2cc1OCCCN1CCOCC1 [Foretinib] (partner 0.25 µM)
# Procedure, shortened: as §1
# [5] = compound: Cn1cncc1[C@@](N)(c1ccc(Cl)cc1)c1ccc2c(c1)c(-c1cccc(Cl)c1)cc(=O)n2C [Tipifarnib] + CS(=O)(=O)CCNCc1ccc(-c2ccc3ncnc(Nc4ccc(OCc5cccc(F)c5)c(Cl)c4)c3c2)o1 [Lapatinib] (partner 2 µM)
# Procedure, shortened: as §1
# [6] = compound: Cn1cncc1[C@@](N)(c1ccc(Cl)cc1)c1ccc2c(c1)c(-c1cccc(Cl)c1)cc(=O)n2C [Tipifarnib] + CS(=O)(=O)N1CCN(Cc2cc3nc(-c4cccc5[nH]ncc45)nc(N4CCOCC4)c3s2)CC1 [Pictilisib] (partner 1 µM)
# Procedure, shortened: as §1
# [7] = compound: Cn1cncc1[C@@](N)(c1ccc(Cl)cc1)c1ccc2c(c1)c(-c1cccc(Cl)c1)cc(=O)n2C [Tipifarnib] + C[C@@H](Oc1cc(-c2cnn(C3CCNCC3)c2)cnc1N)c1c(Cl)ccc(F)c1Cl [Crizotinib] (partner 1 µM)
# Procedure, shortened: as §1
# [8] = compound: Cn1cncc1[C@@](N)(c1ccc(Cl)cc1)c1ccc2c(c1)c(-c1cccc(Cl)c1)cc(=O)n2C [Tipifarnib] + C[C@]1(O)C[C@@H](c2nc(-c3ccc4ccc(-c5ccccc5)nc4c3)c3c(N)nccn32)C1 [Linsitinib] (partner 1 µM)
# Procedure, shortened: as §1
# [9] = compound: Cn1cncc1[C@@](N)(c1ccc(Cl)cc1)c1ccc2c(c1)c(-c1cccc(Cl)c1)cc(=O)n2C [Tipifarnib] + Cc1nc(NC(=O)N2CCC[C@H]2C(N)=O)sc1-c1ccnc(C(C)(C)C(F)(F)F)c1 [Alpelisib] (partner 2 µM)
# Procedure, shortened: as §1
# [10] = compound: Cn1cncc1[C@@](N)(c1ccc(Cl)cc1)c1ccc2c(c1)c(-c1cccc(Cl)c1)cc(=O)n2C [Tipifarnib] + O=C(c1cc(Cc2n[nH]c(=O)c3ccccc23)ccc1F)N1CCN(C(=O)C2CC2)CC1 [Olaparib] (partner 8 µM)
# Procedure, shortened: as §1
cell line,measurement,setting,value
NCI-H1299,relative viability,[1]; 0.01 µM,1.04
same,relative viability,[1]; 0.03162 µM,0.937
same,relative viability,[1]; 0.1 µM,0.958
same,relative viability,[1]; 0.3162 µM,0.836
same,relative viability,[1]; 1 µM,0.832
same,relative viability,[2]; first compound 0.01 µM,0.988
same,relative viability,[2]; first compound 0.03162 µM,0.954
same,relative viability,[2]; first compound 0.1 µM,0.929
same,relative viability,[2]; first compound 0.3162 µM,0.847
same,relative viability,[2]; first compound 1 µM,0.816
same,relative viability,[3]; first compound 0.01 µM,0.966
same,relative viability,[3]; first compound 0.03162 µM,0.969
same,relative viability,[3]; first compound 0.1 µM,0.977
same,relative viability,[3]; first compound 0.3162 µM,0.88
same,relative viability,[3]; first compound 1 µM,0.828
same,relative viability,[4]; first compound 0.01 µM,1.06
same,relative viability,[4]; first compound 0.03162 µM,1.04
same,relative viability,[4]; first compound 0.1 µM,1
same,relative viability,[4]; first compound 0.3162 µM,0.947
same,relative viability,[4]; first compound 1 µM,0.979
same,relative viability,[5]; first compound 0.01 µM,0.998
same,relative viability,[5]; first compound 0.03162 µM,0.9
same,relative viability,[5]; first compound 0.1 µM,0.915
same,relative viability,[5]; first compound 0.3162 µM,0.845
same,relative viability,[5]; first compound 1 µM,0.836
same,relative viability,[6]; first compound 0.01 µM,0.64
same,relative viability,[6]; first compound 0.03162 µM,0.837
same,relative viability,[6]; first compound 0.1 µM,0.422
same,relative viability,[6]; first compound 0.3162 µM,0.35
same,relative viability,[6]; first compound 1 µM,0.298
same,relative viability,[7]; first compound 0.01 µM,0.903
same,relative viability,[7]; first compound 0.03162 µM,0.841
same,relative viability,[7]; first compound 0.1 µM,0.795
same,relative viability,[7]; first compound 0.3162 µM,0.832
same,relative viability,[7]; first compound 1 µM,0.81
same,relative viability,[8]; first compound 0.01 µM,1.06
same,relative viability,[8]; first compound 0.03162 µM,0.886
same,relative viability,[8]; first compound 0.1 µM,0.906
same,relative viability,[8]; first compound 0.3162 µM,0.803
same,relative viability,[8]; first compound 1 µM,0.635
same,relative viability,[9]; first compound 0.01 µM,1.04
same,relative viability,[9]; first compound 0.03162 µM,1.04
same,relative viability,[9]; first compound 0.1 µM,0.971
same,relative viability,[9]; first compound 0.3162 µM,0.973
same,relative viability,[9]; first compound 1 µM,0.941
same,relative viability,[10]; first compound 0.01 µM,0.984
same,relative viability,[10]; first compound 0.03162 µM,0.932
same,relative viability,[10]; first compound 0.1 µM,0.973
same,relative viability,[10]; first compound 0.3162 µM,0.791
same,relative viability,[10]; first compound 1 µM,0.783
